Reference: paper PMC5431883, “Enhancing Specific Disruption of Intracellular Protein Complexes by Hydrocarbon Stapled Peptides Using Lipid Based Delivery” (Scientific Reports, 2017)
Positions of bridges follow the written chain, without caps; N, C: chain ends. Non-standard residues stand in square brackets, D forms with d. Residues, ends and D or L forms follow the SMILES beside them. R8 = C=CCCCCCC[C@@](C)(N)C(=O)O; S5 = C=CCCC[C@](C)(N)C(=O)O; Ahx = NCCCCCC(=O)O

Tests used:
Mdm2 (1-125) = target: T1, Mdm2 (1-125) (Homo sapiens, UniProt Q00987); experiment: Mdm2 competitive fluorescence anisotropy assay (FAM-labeled 12/1 peptide displacement); assay type: binding; details: for Kd: read-out: Kd (apparent dissociation constant, competitive fluorescence anisotropy); on Kd (apparent dissociation constant, competitive fluorescence anisotropy): 250 nM MDM2
T1 construct: Purified MDM2 (1-125) protein was titrated against 50 nM carboxyfluorescein (FAM)-labeled; GST (N, cleaved yes); made in house; host or cells: E. coli BL21 DE3 (pGEX-6P-1)
Method: analyzed with SDS page gel and concentrated using a Centricon (3.5 kDa MWCO) concentrator, Millipore. Mdm2 protein samples were then dialyzed into a buffer solution containing 20mM Bis-Tris, pH 6.5, 0.05M NaCl with 1mM DTT and loaded onto a monoS column pre-equilibrated in buffer A (20mM Bis-Tris, pH 6.5, 1mM DTT). The column was then washed in 6 column volumes of buffer A and bound protein was eluted with a linear gradient of 1M NaCL over 25 column volumes. Protein fractions were analyzed with SDS page gel and concentrated using a Centricon (3.5 kDa MWCO) concentrator, Millipore.
Protein concentration was determined using A280 using an extinction coefficients […]
Mdm2 Competitive Fluorescence Anisotropy Assay and Kd Determination […]
Dissociation constants for titration of MDM2 against […]
equation shown below:25,26
[P] is the protein concentration (MDM2), [L] is the labeled peptide concentration, r is the anisotropy measured, r0 is the anisotropy of the free peptide, rb is the anisotropy of the MDM2– FAM-labeled peptide complex, Kd is the dissociation constant, [L]t is the total FAM labeled
(1 picture or pasted object on this page, not shown here) […]
peptide concentration, and [P]t is the total MDM2 concentration. […]
respective competing ligands in subsequent competition assays.
Apparent Kd values were determined for a variety of molecules via competitive fluorescence anisotropy experiments. Titrations were carried out with the concentration of MDM2 held constant […]
The competing molecules were then titrated against the complex of the FAM-labeled peptide and protein. Apparent Kd values were determined by fitting the experimental data to the equations shown below:26,27 […]
[L]st and [L]t denote labeled ligand and total unlabeled ligand input concentrations, respectively.
Kd2 is the dissociation constant of the interaction between the unlabeled ligand and the protein. In […]
all competitive types of experiments, it is assumed that [P]t > [L]st, otherwise considerable amounts of free labeled ligand would always be present and would interfere with measurements. Kd1 is the […]
experimentally determined as described in the previous paragraph. The FAM-labeled peptide was dissolved in dimethyl sulfoxide (DMSO) at 1 mM and diluted into experimental buffer. Readings were carried out with an Envision Multilabel Reader (PerkinElmer). Experiments were carried out […]
Tween 20 buffer. All titrations were carried out in triplicate. Curve-fitting was carried out using […]
Negative control titrations of the ligands under investigation were also carried out with the fluorescently labeled peptide (in the absence of MDM2) to ensure no interactions were occurring between the ligands and FAM-labeled peptide. […]
which would otherwise indicate an unintended interaction between the ligand and the FAM-labeled peptide to be displaced from the MDM2 binding site. […]

T22 cells = experiment: Lactate dehydrogenase (LDH) release assay in T22 cells; assay type: cell-based, murine
Method: T22 cells or HEK 293 cells were seeded into a 96-well plate at a cell density of 5000 cells per well. Cells were maintained in Dulbecco’s Minimal Eagle Medium (DMEM) with 10% fetal bovine serum (FBS) and 1% (v/v) penicillin/streptomycin. The cells were incubated for 24 hours followed by cell media removal and addition of 90 µl of DMEM either with or without 10% FCS. Cells were then treated with compounds/peptide for 2 hours in DMEM with or without 10% FBS. Final working concentration of DMSO was 1% v/v. Corresponding negative control wells with 1% DMSO only were also prepared. Cytosolic lactate dehydrogenase release was detected using the cytoTox 96® non-radioactive cytotoxicity Assay kit (Promega) as per manufacturer’s instructions. Measurements were carried out using an Envision multiplate reader (Perkin-Elmer). Maximum LDH release was defined as the amount of LDH released when cells were lysed in the presence of 0.1% TRITON X-100 and was used to normalize the results.

T22 p53 reporter cells = experiment: p53 gene reporter assay (β-galactosidase) in T22 cells; assay type: cell-based, murine
Method: T22 cells, which were stably transfected with a p53 responsive β-galactosidase reporter, were seeded into a 96-well plate at a cell density of 8000 cells per well. Cells were also maintained in Dulbecco’s Minimal Eagle Medium (DMEM) with 10% fetal calf serum (FCS) and 1% (v/v) penicillin/streptomycin. The cells were incubated for 24 hours and followed by cell media removal and replacement with 90 µl of fresh DMEM either containing 10% FCS or 0% FCS. 10 µl of each compound was then added directly to each well and incubated for 18 hours. Final working concentration of DMSO was 1% v/v. […] Measurements were carried out using an Envision multiplate reader (Perkin-Elmer). […] This was then used to normalize the experimental results.

T1 sequence (Q00987 1-125): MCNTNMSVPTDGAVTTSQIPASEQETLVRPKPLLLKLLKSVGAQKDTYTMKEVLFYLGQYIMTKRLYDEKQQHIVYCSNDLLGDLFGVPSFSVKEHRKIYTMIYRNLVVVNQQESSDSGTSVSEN

Compound	Kd (Mdm2 (1-125)) [nM]	also measured
CC(=O)N[C@H](C(=O)N[C@@H](CO)C(=O)N[C@@H](Cc1ccccc1)C(=O)N[C@]1(C)CCCCCCC=CCCC[C@@](C)(C(=O)N[C@@H](CCC(=O)O)C(=O)N[C@@H](CC(N)=O)C(=O)N[C@@H](Cc2ccccc2)C(N)=O)NC(=O)[C@H](CC(C)C)NC(=O)[C@H](CC(C)C)NC(=O)[C@H](C)NC(=O)[C@H](Cc2c[nH]c3ccccc23)NC(=O)[C@H](Cc2ccc(O)cc2)NC(=O)[C@H](CCC(=O)O)NC1=O)[C@@H](C)O [VIP-65]	19.7 ± 1.3	–
CC(=O)N[C@@H](CCCNC(=N)N)C(=O)N[C@@H](CCCNC(=N)N)C(=O)N[C@@H](CCCNC(=N)N)C(=O)NCCCCCC(=O)N[C@H](C(=O)N[C@@H](CO)C(=O)N[C@@H](Cc1ccccc1)C(=O)N[C@]1(C)CCCCCCC=CCCC[C@@](C)(C(=O)N[C@@H](CCC(=O)O)C(=O)N[C@@H](CC(N)=O)C(=O)N[C@@H](Cc2ccc(O)cc2)C(N)=O)NC(=O)[C@H](CC(C)C)NC(=O)[C@H](CC(C)C)NC(=O)[C@H](C)NC(=O)[C@H](Cc2c[nH]c3ccccc23)NC(=O)[C@H](Cc2ccc(O)cc2)NC(=O)[C@H](CCC(=O)O)NC1=O)[C@@H](C)O [VIP-85] (Ac-RRR[Ahx]TSF[R8]EYWALL[S5]ENY-NH2; staple 8-15)	44.9 ± 3.5	–
CC(=O)N[C@@H](CCCCN)C(=O)N[C@@H](CC(C)C)C(=O)N[C@@H](C)C(=O)N[C@@H](CCCCN)C(=O)NCCCCCC(=O)N[C@H](C(=O)N[C@@H](CO)C(=O)N[C@@H](Cc1ccccc1)C(=O)N[C@]1(C)CCCCCCC=CCCC[C@@](C)(C(=O)N[C@@H](CCC(=O)O)C(=O)N[C@@H](CC(N)=O)C(=O)N[C@@H](Cc2ccccc2)C(N)=O)NC(=O)[C@H](CC(C)C)NC(=O)[C@H](CC(C)C)NC(=O)[C@H](C)NC(=O)[C@H](Cc2c[nH]c3ccccc23)NC(=O)[C@H](Cc2ccc(O)cc2)NC(=O)[C@H](CCC(=O)O)NC1=O)[C@@H](C)O [VIP-129] (Ac-KLAK[Ahx]TSF[R8]EYWALL[S5]ENF-NH2; staple 9-16)	9.1 ± 1	–
CC(=O)N[C@H](C(=O)N[C@@H](CO)C(=O)N[C@@H](Cc1ccccc1)C(=O)NC(C)(C)C(=O)N[C@@H](CCC(=O)O)C(=O)N[C@@H](Cc1ccc(O)cc1)C(=O)N[C@@H](Cc1c[nH]c2ccccc12)C(=O)N[C@@H](C)C(=O)N[C@@H](CC(C)C)C(=O)N[C@@H](CC(C)C)C(=O)NC(C)(C)C(=O)N[C@@H](CCC(=O)O)C(N)=O)[C@@H](C)O [VIP-76]	35.9 ± 2.3	–
CC(=O)N[C@H](CCCCN)C(=O)N[C@H](CCCCN)C(=O)N[C@H](CCCCN)C(=O)NCCCCCC(=O)N[C@H](C(=O)N[C@@H](CO)C(=O)N[C@@H](Cc1ccccc1)C(=O)N[C@]1(C)CCCCCCC=CCCC[C@@](C)(C(=O)N[C@@H](CCC(=O)O)C(=O)N[C@@H](CC(N)=O)C(=O)N[C@@H](Cc2ccccc2)C(N)=O)NC(=O)[C@H](CC(C)C)NC(=O)[C@H](CC(C)C)NC(=O)[C@H](C)NC(=O)[C@H](Cc2c[nH]c3ccccc23)NC(=O)[C@H](Cc2ccc(O)cc2)NC(=O)[C@H](CCC(=O)O)NC1=O)[C@@H](C)O [VIP-134] (Ac-[dK][dK][dK][Ahx]TSF[R8]EYWALL[S5]ENF-NH2; staple 8-15)	6.2 ± 0.9	–
CC(=O)N[C@H](C(=O)N[C@@H](CO)C(=O)N[C@@H](Cc1ccccc1)C(=O)N[C@]1(C)CCCCCCC=CCCC[C@@](C)(C(=O)N[C@@H](CCC(=O)O)C(N)=O)NC(=O)[C@H](CC(C)C)NC(=O)[C@H](CC(C)C)NC(=O)[C@H](C)NC(=O)[C@H](Cc2c[nH]c3cc(Cl)ccc23)NC(=O)[C@H](Cc2ccc(O)cc2)NC(=O)[C@H](CCC(=O)O)NC1=O)[C@@H](C)O [VIP-137]	< 1	–
CC(C)C[C@@H]1NC(=O)[C@H](C)NC(=O)[C@H](Cc2c[nH]c3ccccc23)NC(=O)[C@H](Cc2ccc(O)cc2)NC(=O)[C@H](CCC(=O)O)NC(=O)[C@](C)(NC(=O)[C@H](Cc2ccccc2)NC(=O)[C@H](CO)NC(=O)[C@@H](NC(=O)CCCCCNC(=O)CCCC[C@@H]2SC[C@@H]3NC(=O)N[C@@H]32)[C@@H](C)O)CCCCCCC=CCCC[C@@](C)(C(=O)N[C@@H](CCC(=O)O)C(=O)N[C@@H](CC(N)=O)C(=O)N[C@@H](Cc2ccccc2)C(N)=O)NC(=O)[C@H](CC(C)C)NC1=O [VIP-83]	24.6 ± 2.2	–
CC(=O)N[C@H](C(=O)N[C@@H](CO)C(=O)N[C@@H](Cc1ccccc1)C(=O)N[C@]1(C)CCCCCCC=CCCC[C@@](C)(C(=O)N[C@@H](CCC(=O)O)C(=O)N[C@@H](CC(N)=O)C(=O)N[C@@H](Cc2ccc(O)cc2)C(N)=O)NC(=O)[C@H](CC(C)C)NC(=O)[C@H](CC(C)C)NC(=O)[C@H](C)NC(=O)[C@H](Cc2c[nH]c3ccccc23)NC(=O)[C@H](Cc2ccc(O)cc2)NC(=O)[C@H](CCC(=O)O)NC1=O)[C@@H](C)O [VIP-66]	23.1 ± 1.5	–
CC(=O)N[C@@H](CCCCN)C(=O)N[C@@H](CCCCN)C(=O)NCCCCCC(=O)N[C@H](C(=O)N[C@@H](CO)C(=O)N[C@@H](CC(C)C)C(=O)N[C@]1(C)CCCCCCC=CCCC[C@@](C)(C(=O)N[C@@H](CCC(=O)O)C(=O)N[C@@H](CC(N)=O)C(=O)N[C@@H](Cc2ccccc2)C(N)=O)NC(=O)[C@H](Cc2c[nH]c3ccccc23)NC(=O)[C@H](CC(C)C)NC(=O)[C@H](C)NC(=O)[C@H](Cc2ccccc2)NC(=O)[C@H](Cc2ccc(O)cc2)NC(=O)[C@H](CCC(=O)O)NC1=O)[C@@H](C)O [VIP-82^SCRAM] (Ac-KK[Ahx]TSL[R8]EYFALW[S5]ENF-NH2; staple 7-14)	–	binding against Mdm2 in the FA competition assay (in words) (Mdm2 (1-125)): no binding; LDH Release (T22 Cells), 0% FCS (LDH50) (T22 cells; 0% FCS, 2 h treatment, normalised to 0.1% Triton X-100 lysis, 4 parameter fit to 10 point titration): No Release; LDH Release (T22 Cells), 10% FCS (LDH50) (T22 cells; 10% FCS, 2 h treatment, normalised to 0.1% Triton X-100 lysis, 4 parameter fit to 10 point titration): No Release; LDH release, peptide formulated with SaintPhD (in words) (T22 cells; formulated with SaintPhD (Figure S2)): did not induce any p53 activity or LDH release; P53 Activation (T22 Cells), 0% FCS (p53ACT50 / EC50) (T22 p53 reporter cells; 0% FCS, 18 h, 1% DMSO, normalised to 25 µM Nutlin, 4 parameter fit to 10 point titration): No Activity; P53 Activation (T22 Cells), 10% FCS (p53ACT50 / EC50) (T22 p53 reporter cells; 10% FCS, 18 h, 1% DMSO, normalised to 25 µM Nutlin, 4 parameter fit to 10 point titration): No Activity; p53 activity, peptide formulated with SaintPhD (in words) (T22 p53 reporter cells; formulated with SaintPhD, conditions identical to VIP-82:SaintPhD (Figure S2)): did not induce any p53 activity or LDH release
CC(=O)N[C@H](CCCCN)C(=O)NCCCCCC(=O)N[C@H](C(=O)N[C@@H](CO)C(=O)N[C@@H](Cc1ccccc1)C(=O)N[C@]1(C)CCCCCCC=CCCC[C@@](C)(C(=O)N[C@@H](CCC(=O)O)C(=O)N[C@@H](CC(N)=O)C(=O)N[C@@H](Cc2ccccc2)C(N)=O)NC(=O)[C@H](CC(C)C)NC(=O)[C@H](CC(C)C)NC(=O)[C@H](C)NC(=O)[C@H](Cc2c[nH]c3ccccc23)NC(=O)[C@H](Cc2ccc(O)cc2)NC(=O)[C@H](CCC(=O)O)NC1=O)[C@@H](C)O [VIP-132]	8 ± 0.8	–
CC(=O)N[C@H](CCCCN)C(=O)N[C@H](CCCCN)C(=O)NCCCCCC(=O)N[C@H](C(=O)N[C@@H](CO)C(=O)N[C@@H](Cc1ccccc1)C(=O)N[C@]1(C)CCCCCCC=CCCC[C@@](C)(C(=O)N[C@@H](CCC(=O)O)C(=O)N[C@@H](CC(N)=O)C(=O)N[C@@H](Cc2ccccc2)C(N)=O)NC(=O)[C@H](CC(C)C)NC(=O)[C@H](CC(C)C)NC(=O)[C@H](C)NC(=O)[C@H](Cc2c[nH]c3ccccc23)NC(=O)[C@H](Cc2ccc(O)cc2)NC(=O)[C@H](CCC(=O)O)NC1=O)[C@@H](C)O [VIP-133] (Ac-[dK][dK][Ahx]TSF[R8]EYWALL[S5]ENF-NH2; staple 7-14)	10 ± 1	–
